Values quoted from earlier work as cited in patent US4323647A, “Steric hindrance enzyme immunoassay” (University of Miami, priority 1980, dated 1982).

Target: beta-galactosidase isolated from E. coli (Escherichia coli, UniProt P00722)
Settings: potent competitive inhibitor; Lai, et al., Biophys. Res. Comm. 54: 463-468 (1973)

beta-galactosidase isolated from E. coli, sequence (P00722 2-1024 limits assumed): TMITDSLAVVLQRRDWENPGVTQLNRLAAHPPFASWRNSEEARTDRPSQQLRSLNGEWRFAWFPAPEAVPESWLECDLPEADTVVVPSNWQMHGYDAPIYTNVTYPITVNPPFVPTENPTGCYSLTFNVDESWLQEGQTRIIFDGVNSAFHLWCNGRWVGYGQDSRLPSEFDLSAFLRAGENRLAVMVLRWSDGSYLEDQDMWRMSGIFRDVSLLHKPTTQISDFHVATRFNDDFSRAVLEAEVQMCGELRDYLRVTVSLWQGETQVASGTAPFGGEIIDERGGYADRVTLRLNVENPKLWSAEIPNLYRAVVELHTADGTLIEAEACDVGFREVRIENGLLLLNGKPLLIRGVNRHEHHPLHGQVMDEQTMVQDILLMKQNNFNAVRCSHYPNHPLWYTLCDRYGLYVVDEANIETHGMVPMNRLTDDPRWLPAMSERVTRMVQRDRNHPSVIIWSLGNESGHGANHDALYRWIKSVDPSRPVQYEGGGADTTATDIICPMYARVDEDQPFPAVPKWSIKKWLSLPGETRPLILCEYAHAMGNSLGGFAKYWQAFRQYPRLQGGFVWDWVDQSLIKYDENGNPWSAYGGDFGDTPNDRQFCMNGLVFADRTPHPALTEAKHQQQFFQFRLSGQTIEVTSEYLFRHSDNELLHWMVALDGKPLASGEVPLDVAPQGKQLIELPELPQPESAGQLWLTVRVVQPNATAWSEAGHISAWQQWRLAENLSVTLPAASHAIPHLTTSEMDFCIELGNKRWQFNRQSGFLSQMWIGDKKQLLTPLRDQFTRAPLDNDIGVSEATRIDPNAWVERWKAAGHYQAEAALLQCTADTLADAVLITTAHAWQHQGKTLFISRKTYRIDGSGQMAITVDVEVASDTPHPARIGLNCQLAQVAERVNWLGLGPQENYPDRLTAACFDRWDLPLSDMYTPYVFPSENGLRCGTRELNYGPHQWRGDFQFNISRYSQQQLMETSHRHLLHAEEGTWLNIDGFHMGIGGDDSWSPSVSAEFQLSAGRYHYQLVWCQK

## N[C@@H]1O[C@H](CO)[C@H](O)[C@H](O)[C@H]1O [beta-D-galactosylamine]
  Ki: 225 µM
